# In patent US10072003B2, “Tetrahydronaphthyridine derivatives as mGluR2-negative allosteric modulators, compositions, and their use” (Merck Sharp & Dohme Corp., priority 2014, dated 2018):
# Target: recombinant human mGluR2 (Homo sapiens (Human), UniProt Q14416)
# Assay: FLIPR Ca2+ mobilization antagonist assay in CHO dhfr- cells expressing human mGluR2 and Gα16
# Type: cell-based
# Details: antagonist response after addition of 2,500 nM glutamate, Fluo-4 AM, FLIPR384
# Protocol: Antagonist constants are determined as follows. The compounds of the invention were tested in a fluorescence laser imaging plate reader based assay. This assay is a common functional assay to monitor Ca2+ mobilization in whole cells expressing recombinant receptor coupled with a promiscuous G-protein. CHO dhfr-cells stably expressing recombinant human mGluR2 and Gα16 loaded with Fluo-4 AM (Invitrogen, Carlsbad Calif.) were treated with various concentrations of antagonists of compounds and the Ca2+ response was monitored on a FLIPR384 (Molecular Devices, Sunnydale Calif.) for agonist activity. Then 2,500 nM glutamate was added and the antagonist response was monitored. The maximum calcium response at each concentration of compound for agonist or antagonist were plotted as dose responses and the curves were fitted with a four parameter logistic equation giving IC50 and Hill coefficient using the iterative non linear curve fitting software ADA (Merck & Co). Data in the following table represent activities in the antagonist assay.
# Chain of recombinant human mGluR2 (Q14416 19-872): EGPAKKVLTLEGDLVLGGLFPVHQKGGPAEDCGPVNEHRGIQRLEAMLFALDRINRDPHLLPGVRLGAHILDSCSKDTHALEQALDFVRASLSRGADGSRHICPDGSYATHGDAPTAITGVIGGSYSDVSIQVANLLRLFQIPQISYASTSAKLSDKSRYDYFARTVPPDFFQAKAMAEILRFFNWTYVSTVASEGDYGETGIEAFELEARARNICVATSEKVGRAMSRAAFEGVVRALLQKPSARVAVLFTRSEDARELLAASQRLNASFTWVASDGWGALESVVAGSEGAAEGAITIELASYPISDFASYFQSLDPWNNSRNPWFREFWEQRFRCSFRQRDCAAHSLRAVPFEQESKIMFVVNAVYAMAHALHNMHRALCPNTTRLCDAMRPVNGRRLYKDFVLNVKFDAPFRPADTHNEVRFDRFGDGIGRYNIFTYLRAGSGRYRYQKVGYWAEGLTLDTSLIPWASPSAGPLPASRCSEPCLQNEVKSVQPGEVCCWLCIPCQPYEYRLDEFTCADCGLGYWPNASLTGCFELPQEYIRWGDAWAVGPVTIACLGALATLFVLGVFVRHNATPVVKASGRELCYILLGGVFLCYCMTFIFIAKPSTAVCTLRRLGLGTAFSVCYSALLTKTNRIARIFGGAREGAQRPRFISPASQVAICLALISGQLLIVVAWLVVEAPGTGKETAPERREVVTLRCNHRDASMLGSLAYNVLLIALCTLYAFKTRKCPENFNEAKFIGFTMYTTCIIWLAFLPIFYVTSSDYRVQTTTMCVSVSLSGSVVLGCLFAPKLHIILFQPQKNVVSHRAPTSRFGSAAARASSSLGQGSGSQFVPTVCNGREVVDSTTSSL
row,Compound,IC50
1,"CC1(C)CCC(c2cc(C(N)=O)nc3c2CCN(Cc2ccnc(C(F)(F)F)c2)C3)CC1 [Example 4-1, 4-(4,4-dimethylcyclohexyl)-7-((2-(trifluoromethyl)pyridin-4-yl)methyl)-5,6,7,8-tetrahydro-1,7-naphthyridine-2-carboxamide]",117 nM
2,"NC(=O)c1cc(-c2ccc(F)cc2F)c2c(n1)CN(C(CO)c1ccccc1)CC2 (racemic) [Example 8-2B, (S) and (R)-4-(2,4-difluorophenyl)-7-(2-hydroxy-1-phenylethyl)-5,6,7,8-tetrahydro-1,7-naphthyridine-2-carboxamide]",11.5 nM
3,"NC(=O)c1cc(-c2ccc(F)cc2F)c2c(n1)CN(CC1CCOC(C3CCC3)C1)CC2 (single isomer, unassigned) [Example 1-14, 7-(((2S,4R) or (2R,4S)-2-cyclobutyltetrahydro-2H-pyran-4-yl)methyl)-4-(2,4-difluorophenyl)-5,6,7,8-tetrahydro-1,7-naphthyridine-2-carboxamide]",40.3 nM
4,"CC1c2nc(C(N)=O)cc(-c3ccc(F)cc3F)c2CCN1CC1CCOC(C)(C)C1 (single isomer, unassigned) [Example 1-18]",12.3 nM
5,"NC(=O)c1cc(-c2ccc(F)cc2)c2c(n1)CN(C[C@@H]1CCN[C@H](C(F)(F)F)C1)CC2 [Example 1-1B, 4-(4-fluorophenyl)-7-(((2S,4R)-2-(trifluoromethyl)piperidin-4-yl)methyl)-5,6,7,8-tetrahydro-1,7-naphthyridine-2-carboxamide]",98.2 nM
6,"CC(C)n1nccc1CN1CCc2c(-c3ccc(F)cc3F)cc(C(N)=O)nc2C1 [Example 1-9, 4-(2,4-difluorophenyl)-7-{[1-(1-methylethyl)-1H-pyrazol-5-yl]methyl}-5,6,7,8-tetrahydro-1,7-naphthyridine-2-carboxamide]",8.2 nM
7,"Cn1nnnc1CN1CCc2c(-c3ccc(F)cc3F)cc(C(N)=O)nc2C1 [Example 2-18, 4-(2,4-difluorophenyl)-7-[(1-methyl-1H-tetrazol-5-yl)methyl]-5,6,7,8-tetrahydro-1,7-naphthyridine-2-carboxamide]",49.5 nM
8,"NC(=O)c1cc(-c2ccc(F)cc2F)c2c(n1)CN(CC(O)c1ccccc1)CC2 (racemic) [Example 8-1A, (S) and (R)-4-(2,4-difluorophenyl)-7-(2-hydroxy-2-phenylethyl)-5,6,7,8-tetrahydro-1,7-naphthyridine-2-carboxamide]",18.5 nM
9,"CC1c2nc(C(N)=O)cc(-c3ccc(F)cc3F)c2CCN1Cc1ccnn1C(C)C (single isomer, unassigned) [Example 1-15A, (S) or (R)-4-(2,4-difluorophenyl)-8-methyl-7-{[1-(1-methylethyl)-1H-pyrazol-5-yl]methyl}-5,6,7,8-tetrahydro-1,7-naphthyridine-2-carboxamide]",5.8 nM
10,"CC1(C)CC(O)(CN2CCc3c(-c4ccc(F)cc4F)cc(C(N)=O)nc3C2(C)C)CO1 (single isomer, unassigned) [Example 15-1A]",24.9 nM
11,"CS(=O)(=O)c1cccc(CN2CCc3c(-c4ccc(F)cc4)cc(C(N)=O)nc3C2)c1 [Example 2-6, 4-(4-fluorophenyl)-7-[3-(methylsulfonyl)benzyl]-5,6,7,8-tetrahydro-1,7-naphthyridine-2-carboxamide]",23 nM
12,"COc1cc(C(N2CCc3c(-c4cnn(C)c4)cc(C(N)=O)nc3C2)C(F)(F)F)ccn1 (racemic) [Example 3-2A, (S) and (R)-4-(1-methyl-1H-pyrazol-4-yl)-7-(2,2,2-trifluoro-1-(2-methoxypyridin-4-yl)ethyl)-5,6,7,8-tetrahydro-1,7-naphthyridine-2-carboxamide]",9.6 nM
13,"CC(C)(C)n1nncc1CN1CCc2c(-c3c(F)cc(Cl)cc3F)cc(C(N)=O)nc2C1 [Example 1-17, 7-[(1-tert-butyl-1H-1,2,3-triazol-5-yl)methyl]-4-(4-chloro-2,6-difluorophenyl)-5,6,7,8-tetrahydro-1,7-naphthyridine-2-carboxamide]",7.4 nM
14,"CS(=O)(=O)c1cccc(CN2CCc3c(-c4ccccc4F)cc(C(N)=O)nc3C2)c1 [Example 2-13, 4-(2-fluorophenyl)-7-[3-(methylsulfonyl)benzyl]-5,6,7,8-tetrahydro-1,7-naphthyridine-2-carboxamide]",47.8 nM
15,"CC1CCCN(c2cc(C(N)=O)nc3c2CCN(Cc2ccnc(C(F)(F)F)c2)C3)C1 (single isomer, unassigned) [Example 5-5A, (S) or (R)-4-(3-methylpiperidin-1-yl)-7-((2-(trifluoromethyl)pyridin-4-yl)methyl)-5,6,7,8-tetrahydro-1,7-naphthyridine-2-carboxamide]",18.4 nM
16,"NC(=O)c1cc(-c2ccc(F)cc2)c2c(n1)CN(CCc1cccnc1N)CC2 [Example 1-4, 7-(2-(2-aminopyridin-3-yl)ethyl)-4-(4-fluorophenyl)-5,6,7,8-tetrahydro-1,7-naphthyridine-2-carboxamide]",83.5 nM
17,"NC(=O)c1cc(-c2ccc(F)cc2F)c2c(n1)CN(CC(O)c1ccccc1)CC2 (single isomer, unassigned) [Example 8-3A, (S) or (R)-4-(2,4-difluorophenyl)-7-[(2S or 2R)-2-hydroxy-2-phenylethyl]-5,6,7,8-tetrahydro-1,7-naphthyridine-2-carboxamide]",18.5 nM
18,"NC(=O)c1cc(-c2ccc(F)cc2Cl)c2c(n1)CN(Cc1ccnc(OC(F)F)c1)CC2 [Example 2-11, 4-(2-chloro-4-fluorophenyl)-7-{[2-(difluoromethoxy)pyridin-4-yl]methyl}-5,6,7,8-tetrahydro-1,7-naphthyridine-2-carboxamide]",10.4 nM

# Now from value to compound:
row,IC50,Compound
1,40.9 nM,"NC(=O)c1cc(N2CCC(F)(F)CC2)c2c(n1)CN(Cc1ccnc(C(F)(F)F)n1)CC2 [Example 12-1, 4-(4,4-difluoropiperidin-1-yl)-7-((2-(trifluoromethyl)pyrimidin-4-yl)methyl)-5,6,7,8-tetrahydro-1,7-naphthyridine-2-carboxamide]"
2,17.6 nM,"NC(=O)c1cc(-c2ccc(F)cc2Cl)c2c(n1)CN(Cc1ccnc(C(F)(F)F)n1)CC2 [Example 11-5, 4-(2-chloro-4-fluorophenyl)-7-{[2-(trifluoromethyl)pyrimidin-4-yl]methyl}-5,6,7,8-tetrahydro-1,7-naphthyridine-2-carboxamide]"
3,41 nM,"COc1cc(CN2CCc3c(N4CCC(F)(F)CC4)cc(C(N)=O)nc3C2)ccn1 [Example 5-3, 4-(4,4-difluoropiperidin-1-yl)-7-[(2-methoxypyridin-4-yl)methyl]-5,6,7,8-tetrahydro-1,7-naphthyridine-2-carboxamide]"
4,6.5 nM,"NC(=O)c1cc(-c2c(F)cc(Cl)cc2F)c2c(n1)CN(Cc1ccnc(C(F)(F)F)n1)CC2 [Example 11-9, 4-(4-chloro-2,6-difluorophenyl)-7-{[2-(trifluoromethyl)pyrimidin-4-yl]methyl}-5,6,7,8-tetrahydro-1,7-naphthyridine-2-carboxamide]"
5,11.7 nM,"NC(=O)c1cc(-c2ccc(Cl)cn2)c2c(n1)CN(Cc1ccnc(C(F)(F)F)c1)CC2 [Example 6-1, 4-(5-chloropyridin-2-yl)-7-((2-(trifluoromethyl)pyridin-4-yl)methyl)-5,6,7,8-tetrahydro-1,7-naphthyridine-2-carboxamide]"
6,11.7 nM,"COc1ccnc(CN2CCc3c(-c4ccc(Cl)cc4F)cc(C(N)=O)nc3C2)n1 [Example 9-7, 4-(4-chloro-2-fluorophenyl)-7-[(4-methoxypyrimidin-2-yl)methyl]-5,6,7,8-tetrahydro-1,7-naphthyridine-2-carboxamide]"
7,92.7 nM,"CN1CCN(c2cc(C(N)=O)nc3c2CCN(Cc2ccnc(C(F)(F)F)c2)C3)CC1C(F)(F)F (single isomer, unassigned) [Example 5-9, (S) or (R)-4-(4-methyl-3-(trifluoromethyl)piperazin-1-yl-7-((2-(trifluoromethyl)pyridin-4-yl)methyl)-5,6,7,8-tetrahydro-1,7-naphthyridine-2-carboxamide]"
8,31 nM,"CC1(CN2CCc3c(-c4ccc(Cl)cc4F)cc(C(N)=O)nc3C2)COC1 [Example 10-1, 4-(4-chloro-2-fluorophenyl)-7-((3-methyloxetan-3-yl)methyl)-5,6,7,8-tetrahydro-1,7-naphthyridine-2-carboxamide]"
9,13.1 nM,"NC(=O)c1cc(N2CCC3(CC2)CC3)c2c(n1)CN(Cc1ccnc(C(F)(F)F)n1)CC2 [Example 12-2, 4-(6-azaspiro[2.5]oct-6-yl)-7-{[2-(trifluoromethyl)pyrimidin-4-yl]methyl}-5,6,7,8-tetrahydro-1,7-naphthyridine-2-carboxamide]"
10,6.6 nM,"COc1ccc(-c2cc(C(N)=O)nc3c2CCN(Cc2ccnc(OC)c2)C3)c(F)c1 [Example 13-2, 4-(2-fluoro-4-methoxyphenyl)-7-[(2-methoxypyridin-4-yl)methyl]-5,6,7,8-tetrahydro-1,7-naphthyridine-2-carboxamide]"
11,8 nM,"CC(C)c1noc(CN2CCc3c(-c4ccc(Cl)cc4F)cc(C(N)=O)nc3C2)n1 [Example 9-6, 4-(4-chloro-2-fluorophenyl)-7-{[3-(1-methylethyl)-1,2,4-oxadiazol-5-yl]methyl}-5,6,7,8-tetrahydro-1,7-naphthyridine-2-carboxamide]"
12,42.7 nM,"Cc1cn(-c2cc(C(N)=O)nc3c2CCN(Cc2ccnc(C(F)(F)F)c2)C3)nc1C [Example 5-7, 4-(3,4-dimethyl-1H-pyrazol-1-yl)-7-{[2-(trifluoromethyl)pyridin-4-yl]methyl}-5,6,7,8-tetrahydro-1,7-naphthyridine-2-carboxamide]"
